Measured values published in patent publication US5043322A, “Cyclic GRF analogs” (The Salk Institute for Biological Studies, priority 1988, dated 1991).
Where a SMILES comes first, the peptide text is derived from it. Bridges are numbered along the chain shown (N, C = ends). [ ]: non-standard residue; d: D form. NMeY = CN[C@@H](Cc1ccc(O)cc1)C(=O)O; Nle = CCCC[C@H](N)C(=O)O

Experiments:
[1] = test system: urethane-anesthetized male rats; experiment: in vivo GH secretion after intravenous injection, blood GH by radioimmunoassay; set-up: species or system rat; details: compared with 25 μg hGRF(1-40)--OH
Experimental: In addition to the in vitro tests for secretion of growth hormone, in vivo experiments inject the synthetic peptides intravenously into urethane-anesthetized male rats and determine that they trigger GH secretion. Blood samples are taken immediately prior to, and 10, 45 and 90 minutes after injections, and GH levels in blood are measured by radioimmunoassay. […] Dosages between about 400 nanograms and about 50 micrograms of these cyclic peptides per Kg. of body weight are considered to be effective in causing GH secretion.

[2] = test system: cells of rat pituitary glands; experiment: in vitro GH release from cultured rat pituitary cells, side-by-side with standard hGRF(1-40)--OH; assay type: cell-based; details: equimolar concentrations, incubation 3 to 4 hours, ir GH in culture medium by radioimmunoassay
Experimental: All of these synthetic peptides are considered to be biologically active and potentially useful for stimulating the release of GH by the pituitary.
To determine the relative effectiveness of certain representative synthetic peptides to promote the release of growth hormone, in vitro assays are carried out using synthetic hGRF(1-40)--OH as a standard in side-by-side comparison with equimolar concentrations of the representative analogs which have been synthesized. Cultures are used which include cells of rat pituitary glands removed some three to five days previously. Such cultures are considered optimal for the secretion of growth hormone and are used for the comparative testing, in the general manner described in Vale et al. Endocrinology, 91, 562-572 (1972) and as more particularly described in Vale et al. Endocrinology, 112, 553-1555 (1983). Incubation with the substance to be tested is carried out for 3 to 4 hours, and aliquots of the culture medium are removed and processed to measure their contents in immunoreactive GH(ir GH) by a well-characterized radioimmunoassay.

SMILES	in vivo response (blood GH) at 10 minutes ([1]; dosage of 1 μg)	biological potency for the secretion of GH relative to hGRF(1-40)--OH [2]	in vivo response (blood GH) at 10 minutes ([1]; dosage of 5 μg)
CCCC[C@@H]1NC(=O)[C@H]([C@@H](C)CC)NC(=O)[C@H](NC(=O)[C@H](Cc2c[nH]cn2)NC(=O)[C@H](CC(C)C)NC(=O)[C@H](CC(C)C)NC(=O)[C@H](CCCCN)NC(=O)[C@H](CCCNC(=N)N)NC(=O)[C@H](C)NC(=O)[C@H](Cc2ccc(O)cc2)NC(=O)[C@H](CC(C)C)NC(=O)[C@H](CCC(N)=O)NC(=O)[C@H](C)NC(=O)[C@H](CC(C)C)NC(=O)[C@@H](NC(=O)[C@H](CCCNC(=N)N)NC(=O)[C@H](CCCNC(=N)N)NC(=O)[C@H](Cc2ccc(O)cc2)NC(=O)[C@H](CO)NC(=O)[C@H](CO)NC(=O)[C@@H](NC(=O)[C@H](Cc2ccccc2)NC(=O)[C@@H](NC(=O)[C@H](C)NC(=O)[C@H](CC(=O)O)NC(=O)[C@H](C)NC(=O)[C@H](Cc2ccc(O)cc2)NC)[C@@H](C)CC)[C@@H](C)O)[C@@H](C)CC)CSSC[C@@H](C(N)=O)NC(=O)[C@H](CC(N)=O)NC1=O [Example I, [N^a MeTyr^1, Ala^15, D-Cys^25, Nle^27,Cys^29]-rGRF(1-29)-NH2] (H-[NMeY]ADAIFTSSYRRILAQLYARKLLH[dC]I[Nle]NC-NH2; disulfide 25-29)	greater than a 25 μg dose of hGRF(1-40)--OH	–	–
CCCC[C@@H]1NC(=O)[C@H]([C@@H](C)CC)NC(=O)[C@@H](NC(=O)[C@H](Cc2c[nH]cn2)NC(=O)[C@H](CC(C)C)NC(=O)[C@H](CC(C)C)NC(=O)[C@H](CCCCN)NC(=O)[C@H](CCCNC(=N)N)NC(=O)[C@H](C)NC(=O)[C@H](Cc2ccc(O)cc2)NC(=O)[C@H](CC(C)C)NC(=O)[C@H](CCC(N)=O)NC(=O)[C@H](C)NC(=O)[C@H](CC(C)C)NC(=O)[C@@H](NC(=O)[C@H](CCCNC(=N)N)NC(=O)[C@H](CCCNC(=N)N)NC(=O)[C@H](Cc2ccc(O)cc2)NC(=O)[C@H](CO)NC(=O)[C@H](CO)NC(=O)[C@@H](NC(=O)[C@H](Cc2ccccc2)NC(=O)[C@@H](NC(=O)[C@H](C)NC(=O)[C@H](CC(=O)O)NC(=O)[C@H](C)NC(=O)[C@H](Cc2ccc(O)cc2)NC)[C@@H](C)CC)[C@@H](C)O)[C@@H](C)CC)CSSC[C@H](C(N)=O)NC(=O)[C@H](CC(N)=O)NC1=O [Example IA, [N^a MeTyr^1,Ala^15,Cys^25,Nle^27,D-Cys^29]-rGRF(1-29)-NH2] (H-[NMeY]ADAIFTSSYRRILAQLYARKLLHCI[Nle]N[dC]-NH2; disulfide 25-29)	–	about twice	greater than a 25 μg dose of hGRF(1-40)--OH
